“Also recorded” adds a separate entry of the source.
Key:
[1] = system: T cells isolated from mouse spleens; assay: T cell proliferation inhibition (CFSE flow cytometry, anti-CD3/anti-CD28 stimulation); type: cell-based, C57BL/6 mice; conditions: three days
Procedure, shortened: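 Splenic T cells from 7-week-old C57BL/6 mice, CFSE-labelled, 2× 10^5 cells/well, stimulated with anti-CD3 and anti-CD28 (0.5 μg/mL each). Compound at 10 nM-50 μM in triplicate for three days at 37 °C, 5% CO2; proliferation inhibition (%) derived by flow cytometry.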

[2] = system: Human B Lymphocyte cell line, SU-DHL-8; assay: Relative cell viability, SU-DHL-8 (CCK-8); type: cell-based; conditions: 48 hours, untreated (DMSO) = 100%
Experimental: Human-derived B lymphoma cell line SU-DHL-8 (Cat. #CRL-2961) purchased from ATCC was cultured in RPMI-1640 medium containing 10% FBS, 100 U/mL penicillin, and 100 μg/mL streptomycin.
The cell culture medium was then harvested, centrifuged at 1,300 rpm for 5 minutes, and the supernatant was removed. The cells were resuspended in the same medium and dispensed into a 96-well plate (Costar 96-well cell culture plate, Corning) at 90 μL per well, resulting in the conditions specified in Table 5.
Then, 10 μL of CCK-8 was added to each well, and the plates were incubated again at 37° C. in a 5% CO2 incubator for 4 hours.
In other words, when the survival rate of untreated cells (DMSO) is set at 100%, the relative cell survival rate in each group treated with the drug at different concentrations is indicated.

[3] = system: HCT-116 colon cancer cell lines; assay: Matrigel Invasion Assay on HCT-116 colon cancer cell line; type: cell-based, human; conditions: HCT-116, Matrigel, 24 hours treatment, vs DMSO
Experimental: To evaluate the metastasis inhibitory efficacy of the compounds of the present invention on HCT-116 colon cancer cell lines, an Invasion Assay using Matrigel was performed to assess the cells' invasion ability.
First, Matrigel was thawed on ice in RPMI-1640 medium without FBS, then diluted with DMEM at a ratio of 1:20.
The diluted Matrigel mixture was applied to the upper chamber at 100 μl per well, and 750 μl of RPMI-1640 without FBS was added to the lower chamber.
The plates were then incubated at 37° C. for 1 hour to allow the Matrigel to solidify.
After coating, the Matrigel mixture in the upper chamber was removed using a pipette, and the chamber was washed with RPMI without FBS.
Human-derived colorectal cancer cell line HCT-116, obtained from the Korean Cell Bank, was cultured in RPMI-1640 medium containing 10% FBS.
Following stabilization, the cells were harvested using Trypsin-EDTA treatment, centrifuged at 1,200 rpm for 3 minutes, the supernatant was removed, and the cells were resuspended in the same medium, the medium in the lower chamber was replaced with 750 μl of RPMI-1640 supplemented with 10% FBS, and the cells were seeded into the upper chamber at a density of 5×10^4 cells/well.
The cells were cultured for 24 hours after attachment, and then the compounds according to the present invention (G078, G085, G086, G088, G089, PBK-2024-010, PBK-2025-010, PBK-2025-013, PBK-2025-016) and the control substance DMSO were diluted and added to the upper chamber after removing the medium.
Additionally, the medium in the lower chamber was replaced with fresh RPMI-1640 containing FBS, and the culture was continued.
After an additional 24 hours, the medium was removed, and 1 ml of methanol was added for 10 minutes to fix the cells.
Subsequently, 1 ml of Hematoxylin was added and reacted for 5 minutes, followed by 1 ml of Eosin, which was reacted for 30 seconds. The sample was then washed with distilled water (DW).
After staining was complete, any remaining cells in the upper chamber were removed. Finally, the infiltrated cells were observed under a microscope, photographed, and the degree of infiltration was analyzed.

[4] = system: PDK1 phosphorylation in SU-DHL-8 cells; assay: PDK1 phosphorylation inhibition by flow cytometry (pPDK1-PE) in SU-DHL-8 cells; type: cell-based, human; conditions: SU-DHL-8, 24 hours, vs control group, listed as GO48
Experimental: After stabilizing the cells, the compound of the present invention was added, and the cells were cultured for 24 hours.
After drug treatment, the cells were harvested, and the Fc receptor blocking process was performed. The cells were then fixed and permeabilized using the Intracellular Staining Kit (Cat. No. BD554715) from BD Biosciences. Subsequently, the intracellular pPDK1 was stained using the pPDK1-PE fluorescently labeled antibody (BD Biosciences).
Referring to the figure, the vertical axis represents the phosphorylation level of PDK1 (phospho-PDK1 expression level), and the horizontal axis denotes the concentration-dependent treatment conditions of each compound.

[5] = system: MRL/lpr mice with hair loss in the facial region; assay: Hair loss treatment and hair follicle Ki-67 IHC in MRL/lpr mice; type: in vivo; conditions: 41-week-old female MRL/lpr; GO15F (30 mg/kg), GO48 (1 mg/kg), GO88 (0.5 mg/kg) intraperitoneal once daily
Experimental: Additionally, in 41-week-old female MRL/Ipr mice, the compounds GO15F (30 mg/kg), GO48 (1 mg/kg), and GO88 (0.5 mg/kg) were administered intraperitoneally once daily.
To confirm the proliferative activity of hair follicle cells in the skin tissue of these mice, the mice were sacrificed 14 days after administration of the compounds of the present invention, and Ki-67 immunohistochemistry (IHC) was performed.
For this purpose, the excised skin tissue was fixed in formalin, embedded in paraffin blocks, and stained with a Ki-67-specific antibody on tissue sections prepared as slides.

psoriasis-induced mice = assay: In vivo psoriasis model (Aldara cream, Imiquimod); design: species or system BALB/c mice
Experimental: To verify the therapeutic effect of the compound according to the present invention on psoriasis, a psoriasis animal model was established as follows, and the compound according to the present invention was administered to evaluate the alleviation of skin lesions and changes in immune cell patterns.
For the establishment of the psoriasis animal model, BALB/c mice (7 weeks old, female, 20 g) were purchased from HanabioTech Co., Ltd. and acclimatized to the rearing environment for one week.
Subsequently, the hair on the mouse back was shaved using a hair removal device for the first time, and then completely shaved using a depilatory cream (Nicrin Cream (80% thioglycolic acid, Il Dong Pharmaceutical)) for the second time. The mice were then kept for 24 hours to confirm the absence of skin damage.
To verify the psoriasis prevention and therapeutic effects of the compounds according to the present invention, the following experimental groups were established:
[Normal control group (Normal, Not Treatment), psoriasis-induced control group (Psoriasis, Not Treatment), psoriasis-induced vehicle control group (Psoriasis, Vehicle), experimental group (GO85, GO86, GO88, GO89, PBK-2024-010, PBK-2024-026, PBK-2025-002, PBK-2025-004, PBK-2025-016, PBK-2025-017, PBK-2025-023)]. […]
Body weights of mice in each group were measured on days 1, 4, and 8 after the start of injection and psoriasis induction. […]
To evaluate the therapeutic effect in a psoriasis-induced mouse model, the PASI (Psoriasis Area and Severity Index) score was measured.
The PASI score is based on three criteria: erythema, scaling, and skin thickness, each scored from 0 (none) to 4 (severe). […]
Observations were conducted daily at the same time, and the same observer visually assessed each criterion and recorded the scores, with the results presented in FIG. 13. […]
All samples were measured in duplicate, and the absorbance was measured at 450 nm using a microplate reader.

Row | Compound | Proliferation inhibition rate (%) ([1]; concentration 100 nM) | Proliferation inhibition rate (%) ([1]; concentration 1 μM) | Proliferation inhibition rate (%) ([1]; concentration 10 μM) | Proliferation inhibition rate (%) ([1]; concentration 30 μM) | Proliferation inhibition rate (%) ([1]; concentration 50 μM) | Relative cell viability (%) ([2]; SU-DHL-8, 1 μM) | Relative cell viability (%) ([2]; SU-DHL-8, 10 μM) | Relative cell viability (%) ([2]; SU-DHL-8, 30 μM) | Relative cell viability (%) ([2]; SU-DHL-8, 50 μM) | number of infiltrated cells (invasion) [3] | phospho-PDK1 expression level [4] | hair growth on the facial region [5] | efficacy in improving dermatological symptoms (psoriasis-induced mice)
1 | CC(C)(C)OC(=O)N[C@H]1CCN(CCCCCCCCCCCCNC(=O)c2cccnc2N)C1 [Compound 49, tert-Butyl(S)-(1-(12-(2-aminonicotinamido)dodecyl)pyrrolidin-3-yl) carbamate] | 100.00% | 100.00% | 100.00% | 100.00% | 100.00% | 8.93% | 8.02% | 7.48% | 4.09% | reduction in the number of infiltrated cells | – | – | –
2 | Nc1ncccc1C(=O)NCCCCCCCCCCCCN1CCOCC1 [Compound 2, 2-amino-N-(12-morpholin-4-yl-dodecyl)-nicotinamide] | – | – | – | – | – | – | – | – | – | – | stronger PDK1 inhibition; also recorded: high inhibitory effects even at low concentrations | hair growth was confirmed | –
3 | Nc1nc(NC(=O)CCCCCCCCCCCCN2CCN(CCO)CC2)nc2nc[nH]c12 [Compound 15, 12-[4-(2-hydroxyethyl)piperazin-1-yl]dodecyl-N-(6-aminopurine-2-yl) carboxamide] | – | – | – | – | – | – | – | – | – | reduction in the number of infiltrated cells | – | – | excellent efficacy in improving dermatological symptoms

Reference: patent US20260183302A1, “PDK1 REGULATORY COMPOUND AND COMPOSITION CONTAINING THE SAME” (PROVIBIO CO., LTD., priority 2024, published 2026)
